Patent US9618511B2, “Methods and compositions for treating alzheimer's disease” (Eleanore Bennett Charitable Trust #2, priority 2008, dated 2017)
Entries after “also recorded” stand apart in the source; their conditions may differ. Values belong to the compound of their own block, whether it stands above or below them.

Columns and labels:
[1] = system: PDK-dependent activation of Akt1; experiment: In vitro PDK-dependent Akt1 phosphorylation and activity assay (immunoprecipitated PDK1 and Akt1, GSK-3 fusion protein substrate); assay type: biochemical, human (SH-SY5Y, HEK293), mouse (C2C12); conditions: for effect on PDK-stimulated Akt activity / Akt phosphorylation: 10 μM; for relative effect of amyloid preparations (monomer, ADDL, fibril) on PDK-dependent Akt activation: comparison of preparations, SH-SY5Y-derived kinases
Procedure: Akt1 was immunoprecipitated (IP) overnight from 100 μg of the human brain sample or from C2C12 myotubes infected with adenovirus encoding Aβ using a 1:100 dilution of goat anti-Akt1 antibody. The following morning, 40 μl of a 50% slurry of protein G-Agarose (PGA) (Roche Applied Science) was added for an additional 1.5 hours. The beads were washed twice with wash buffer [1× phosphate buffered saline (PBS), 0.5% NP-40, 0.1 mM Na3VO4] and twice with kinase buffer [25 mM Tris (pH 7.5), 2 mM DTT, 0.1 mM Na3VO4, 10 mM MgCl2]. ATP (200 μM) and GSK-3 fusion protein (1 μg/50 μl) were added in the presence of kinase buffer, and the final reaction (50 μl) was incubated 30 minutes at 30° C. The reaction was stopped by adding 40 μl of Laemmli buffer. 20 μl of sample was loaded onto a 10% polyacrylamide gel for fractionation and western detection development.
Immunoprecipitates (IPs) of PDK1 and Akt were prepared from 100 μg of either SH-SY5Y, C2C12 myotubes or from insulin-treated cultures. ATP (200 μM), GSK-3 fusion protein (1 μg/50 μl) and kinase buffer were added to the reaction. Various Aβ peptides were finally added at 0.01, 0.1, 1, 5, 10, 20 μM. Akt activity level was otherwise determined as above.

[2] = target: T1, SGK (serum/glucocorticoid regulated kinase) activated by PDK (Mus musculus, UniProt Q9Z2A0); experiment: PDK-stimulated SGK activity, in vitro kinase assay; assay type: biochemical; conditions: 10 μM
T1 construct: Stimulated PDK was IP from insulin-treated C2C12 myotubes; endogenous in cells; host or cells: PDK from insulin-treated C2C12 myotubes
T1 sequence (Q9Z2A0 1-559): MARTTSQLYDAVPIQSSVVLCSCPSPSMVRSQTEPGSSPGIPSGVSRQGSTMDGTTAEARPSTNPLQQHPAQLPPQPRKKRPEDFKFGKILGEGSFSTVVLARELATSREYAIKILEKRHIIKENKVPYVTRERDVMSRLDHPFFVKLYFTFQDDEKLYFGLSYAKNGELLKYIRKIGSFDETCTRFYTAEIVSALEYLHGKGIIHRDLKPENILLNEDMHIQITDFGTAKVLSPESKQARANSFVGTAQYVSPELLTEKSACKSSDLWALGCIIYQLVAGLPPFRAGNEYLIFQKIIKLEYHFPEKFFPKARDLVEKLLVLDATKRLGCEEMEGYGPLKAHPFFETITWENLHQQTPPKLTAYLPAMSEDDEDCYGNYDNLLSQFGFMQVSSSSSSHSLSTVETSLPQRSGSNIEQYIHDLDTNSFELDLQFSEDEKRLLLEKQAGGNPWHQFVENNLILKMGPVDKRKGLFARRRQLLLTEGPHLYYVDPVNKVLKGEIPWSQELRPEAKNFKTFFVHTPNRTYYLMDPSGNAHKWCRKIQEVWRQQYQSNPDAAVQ
Excerpt: Another kinase, termed SGK (serum/glucocorticoid regulated kinase), is also activated by PDK. Similar to Akt, SGK has a PH domain and phosphorylates GSK-3 α/β (Kobayashi, T., Deak, M., Morrice, N., and Cohen, P., 1999, Characterization of the structure and regulation of two novel isoforms of serum- and glucocorticoid-induced protein kinase, Biochem J 344 Pt 1:189-197, and Tessier, M., and Woodgett, J. R., 2006, Serum and glucocorticoid-regulated protein kinases: variations on a theme, J Cell Biochem 98:1391-1407). If Aβ inhibits PH-mediated activations of Akt independent of PIP3, it is predicted to affect this mechanism too. Indeed, in FIG. 7D, ADDL-containing Aβ preparations inhibited PDK-stimulated SGK activity (lane 7 vs. 6 and 5). […] This enhanced activity was not however, interrupted by Aβ (10 μM, lane 4 vs. 3). Lastly, another kinase that converges to phosphorylate GSK, PKA (Grimes, C. A., and Jope, R. S., 2001, The multifaceted roles of glycogen synthase kinase 3beta in cellular signaling, Prog Neurobiol 65:391-426; Li, M., Wang, X., Meintzer, M. K., Laessig, T., Birnbaum, M. J., and Heidenreich, K. A., 2000, Cyclic AMP promotes neuronal survival by phosphorylation of glycogen synthase kinase 3beta, Mol Cell Biol 20:9356-9363), was tested. […] Thus, the mechanism of Aβ inhibition of Akt activation is specific to PDK-like kinases. […]

[3] = system: C2C12 myotubes; experiment: Extracellular peptide or insulin treatment of C2C12 myotubes, western blot of Akt signaling; assay type: cell-based, mouse
Procedure: The prior cell-based and in vitro experiments are relevant to […] Aβ effects. To determine the specificity of Akt inhibition by […] Aβ, C2C12 myotubes were cultured, and treated with extracellular Aβ25-35, Aβ35-25, Aβ1-42 and Aβ42-1 for 24 hours. In the last 30 minutes before harvest, insulin was added (0.1 μg/ml). While p-Akt (Ser473) and p-GSK-3 α/β levels were increased by insulin treatment (FIG. 9C, lane 2 vs. 1), they were not affected by any of the Aβ treatments. […] There were also no significant changes in p-Akt (Ser473) levels (data not shown). […] PDK itself is subject to phosphorylation (e.g., at Ser 241) and several authors feel that it is constitutively phosphorylated and thus ‘primed’ (Casamayor, A., Morrice, N. A., and Alessi, D. R., 1999, Phosphorylation of Ser-241 is essential for the activity of 3-phosphoinositide-dependent protein kinase-1: identification of five sites of phosphorylation in vivo, Biochem J 342 (Pt 2):287-292). The experiments described herein indicate that p-PDK levels are constitutively high in C2C12 cells and not boosted further by insulin action (FIG. 9E, top). p-PDK levels were not modulated by extracellular (FIG. 9E lower panel) or intracellular Aβ expression (not shown).
In FIG. 9C C2C12 myotubes were bath exposed to AP25-35, reverse AP35-25, AP1-42 and reverse Aβ42-1 peptides for 24 hours before treatment with insulin (0.1 μg/ml, 15 min) Whole cell extracts were subjected to Western analysis for p-Akt (Ser473) (Akt activation) and total Akt levels (top) as well as for endogenous levels of pGSK-3a/p, indicative of Akt activity, and total GSK-3β (lower two blots). […] The increase was not affected by pre-treatment with extracellular AR.
In FIG. 9D C2C12 myotube cultures were exposed to increasing doses of A[i1-42 (0, 10 and 25 μM) for 2 hours before treatment with insulin (0, 20, 100 and 500 ng/ml) for 15 min Harvested cell extracts were used for western blot for p-Akt (Thr308).

Compound: CCCCCCCCCCCCCCCC(=O)OC[C@H](COP(=O)(O)OC1[C@H](O)[C@H](OP(=O)(O)O)C(OP(=O)(O)O)[C@H](OP(=O)(O)O)[C@H]1O)OC(=O)CCCCCCCCCCCCCCC (stereo partly shown) [PIP3, phosphatidylinositol-tris-3,4,5-phosphate, dipalmitoyl]
PDK-dependent Akt1 phosphorylation and activity ([1]; 50 nM added, PP2A-treated Akt): extra increase

PDK-stimulated SGK activity [2]: inhibited SGK activation
Compound: ADDL: Aβ-derived diffusible ligands, oligomer-enriched Aβ42 preparation (24 to 48 hr at 4° C.)
effect on PDK-stimulated Akt activity (GSK-3 substrate phosphorylation) ([1]; 5 μM (or doses up to 5 μM)): greatest interference | effect on PDK-stimulated Akt activity / Akt phosphorylation [1]: nearly eliminates | effect on PDK-stimulated Akt activity / Akt phosphorylation ([1]; listed as ADDL preparations): near total inhibition | relative effect of amyloid preparations (monomer, ADDL, fibril) on PDK-dependent Akt activation [1]: more potent inhibitors | relative effect of amyloid preparations (monomer, ADDL, fibril) on PDK-dependent Akt activation ([1]; listed as ADDL-containing Aβ preparations): additively more injurious | relative effect of amyloid preparations (monomer, ADDL, fibril) on PDK-dependent Akt activation ([1]; listed as ADDLs): more toxic; also recorded: significantly prevented; also recorded: significantly greater inhibition

Compound: Aβ25-35: fragment consisting of residues 25-35 of Aβ (GSNKGAIIGLM; Amyloid-beta protein 42; UniProt P05067 696-706, looked up, fragment)
p-Akt (Ser473) and p-GSK-3 α/β levels after insulin ([3]; extracellular peptide 24 hours, then insulin 0.1 μg/ml): not affected

Compound: Fibrillar Aβ: fibrillar Aβ42 made in 10 mM HCl, 37° C., 24 hr
relative effect of amyloid preparations (monomer, ADDL, fibril) on PDK-dependent Akt activation ([1]; listed as fibril-containing preparations): little toxicity; also recorded: least active | relative effect of amyloid preparations (monomer, ADDL, fibril) on PDK-dependent Akt activation ([1]; listed as fibrillated preparations of Aβ): little effect

Compound: Insulin: insulin used to stimulate the Akt pathway
levels of p-Akt (Ser473) and Akt activity (p-GSK-3 α/β) ([3]; 0.1 μg/ml, 15 min): significantly increased

Compound: PTEN: Recombinant Phosphatase and Tensin Homolog, lipid phosphatase (R & D Systems)
PDK stimulation of Akt activity after preincubation of the kinase beads ([1]; preincubation 10.6 μg/ml, 15 min at 37° C., then washing): eliminated any stimulation of Akt activity
